Measured values from patent US9085570B2, “Substituted benzamides and their uses” (The Board of Trustees of the Leland Stanford Junior …, priority 2010, dated 2015).

tested on: RCC4 with VHL-reintroduced (RCC4/VHL); assay: XTT cell viability assay in RCC4/VHL cells, selectivity ratio versus RCC4; type: cell-based; conditions: Ratio = IC50RCC4/VHL/IC50RCC4
Protocol: (§1) Cell Culture. RCC4 parental and RCC4 with VHL-reintroduced (RCC4/VHL), SN12C and SN12C-CSCG-VHL shRNA were maintained in DMEM supplemented with 10% FCS.
(§2) Cell Viability Assays. For 2,3-bis[2-methoxy-4-nitro-5-sulfophenyl]-2H-tetrazolium-5-carboxanilide (XTT) assays, five thousand cells were plated in 96-well plates. The next day, vehicle (DMSO) or drug was added by serial dilution. Four days later, media were aspirated, XTT solution (0.3 mg/ml of XTT (Sigma), […] N-methyl dibenxopyrazine methyl sulfate (Simga) in phenol red-free media) was added, and the plates were incubated at 37° C. for 1-2 hours. Metabolism of XTT was quantified by measuring the absorbance at 450 nm IC50s were calculated using linear interpolation. For clonogenic survival assays, three hundred cells were plated per 60 mm tissue culture dish. The cells were allowed to attach overnight and then treated with vehicle or drug for 14 days. Colonies were fixed and stained with crystal violet (0.1% crystal violet in 95% ethanol). All conditions were measured in triplicate and each experiment was done in duplicate or triplicate. To determine necrosis, cells were treated with drug for a given time point. Media and cells were collected, centrifugated, and resuspended in 0.4% trypan blue (Invitrogen). Live and dead cells were counted on a hematocytometer.
(§3) The designation A reflects an IC50 of <1 nM; B reflects an IC50 ranging from 1 to 20 nM; and C is an IC50 of >20 nM. The designation “a” reflects a ratio of RCC4/RCC-VHL+ranging from 1 to ≦10; “b” reflects from 10 to ≦100; “c” reflects a ratio of >100. Compounds I-29 have an IC50 value of ≦10 μM when tested in the above assay.

| SMILES | Ratio |
| --- | --- |
| O=C(Nc1cccnc1)c1ccc(CNS(=O)(=O)c2ccsc2)cc1 [II-5, N-(3-Pyridinyl)-4-{[(3-thienylsulfonyl)amino]methyl}benzamide] | a (a ratio of RCC4/RCC-VHL+ranging from 1 to ≦10) |
| O=C(Nc1cccnc1)c1ccc(CNS(=O)(=O)c2cccs2)cc1 [II-4, N-(3-Pyridinyl)-4-{[(2-thienylsulfonyl)amino]methyl}benzamide] | a (a ratio of RCC4/RCC-VHL+ranging from 1 to ≦10) |
| O=C(Nc1cccnc1)c1ccc(CNS(=O)(=O)c2ccc(Oc3ccccc3)nc2)cc1 [II-3, 4-({[(6-Phenoxy-3-pyridinyl)sulfonyl]amino}methyl)-N-(3-pyridinyl)benzamide] | a (a ratio of RCC4/RCC-VHL+ranging from 1 to ≦10) |
| O=C(Nc1cccnc1)c1ccc(CNS(=O)(=O)c2cccnc2)cc1 [II-1, N-(3-Pyridinyl)-4-{[(3-pyridylsulfonyl)amino]methyl}benzamide] | a (a ratio of RCC4/RCC-VHL+ranging from 1 to ≦10) |

tested on: RCC4; assay: XTT cell viability assay in RCC4 cells (VHL-deficient renal carcinoma); type: cell-based; conditions: Homo sapiens, 96 h, four days drug exposure
Protocol: as §1, §2, §3

| SMILES | IC50 |
| --- | --- |
| O=C(Nc1cccnc1)c1ccc(CNS(=O)(=O)c2nnc[nH]2)cc1 [II-7, N-(3-pyridinyl)-4-{[(4H-1,2,4-triazol-3-ylsulfonyl)amino]methyl}benzamide] | > 20 nM |
| O=C(Nc1cccnc1)c1ccc(CNS(=O)(=O)c2ccc(Cl)nc2)cc1 [II-2, 4-({[(6-Chloro-3-pyridinyl)sulfonyl]amino}methyl)-N-(3-pyridinyl)benzamide] | > 20 nM |
| Cc1ncc(S(=O)(=O)NCc2ccc(C(=O)Nc3cccnc3)cc2)n1C [II-6, 4-({[(1,2-Dimethyl-1H-imidazol-5-yl)sulfonyl]amino}methyl)-N-(3-pyridinyl)benzamide] | > 20 nM |

tested on: not given; assay: not given; conditions: not given

| SMILES | melting point |
| --- | --- |
| Cc1ccc(S(=O)(=O)Cc2nc(-c3ccc(C(=O)Nc4ccncc4)cc3)oc2C)cc1 [Example 2, 4-(5-Methyl-4-{[(4-methylphenyl)sulfonyl]methyl}-1,3-oxazol-2-yl)-N-(4-pyridinyl)benzamide] | 229 to 231 °C |
| Cc1oc(-c2ccc(C(=O)NCc3ccccc3)cc2)nc1CS(=O)(=O)c1ccc(Br)cc1 [Example 27, N-Benzyl-4-(4-{[(4-bromophenyl)sulfonyl]methyl}-5-methyl-1,3-oxazol-2-yl)benzamide] | 234 to 237 °C |
| COc1ccc(S(=O)(=O)Cc2nc(-c3ccc(C(=O)NCc4cccnc4)cc3)oc2C)cc1OC [Example 20, 4-(4-{[(3,4-Dimethoxyphenyl)sulfonyl]methyl}-5-methyl-1,3-oxazol-2-yl)-N-(3-pyridinylmethyl)benzamide] | 104 to 108 °C |
| O=C(Nc1cccnc1)c1ccc(CNS(=O)(=O)c2nnc[nH]2)cc1 [II-7, N-(3-pyridinyl)-4-{[(4H-1,2,4-triazol-3-ylsulfonyl)amino]methyl}benzamide] | 266 to 269 °C |
| Cc1ccc(S(=O)(=O)Cc2nc(-c3ccc(C(=O)NCc4cnccn4)cc3)oc2C)cc1 [Example 9, 4-(5-Methyl-4-{[(4-methylphenyl)sulfonyl]methyl}-1,3-oxazol-2-yl)-N-(2-pyrazinylmethyl)benzamide] | 204 to 206 °C |
| Cc1oc(-c2ccc(C(=O)NCc3cccnc3)cc2)nc1CS(=O)(=O)c1ccc(F)cc1 [Example 22, 4-(4-{[(4-Fluorophenyl)sulfonyl]methyl}-5-methyl-1,3-oxazol-2-yl)-N-(3-pyridinylmethyl)benzamide] | 218 to 220 °C |
| COc1ccc(S(=O)(=O)Cc2nc(-c3ccc(C(=O)NCc4cccnc4)cc3)oc2C)cc1 [Example 18, 4-(4-{[(4-Methoxyphenyl)sulfonyl]methyl}-5-methyl-1,3-oxazol-2-yl)-N-(3-pyridinylmethyl)benzamide] | 189 to 191 °C |
| Cc1cc(C)cc(S(=O)(=O)Cc2nc(-c3ccc(C(=O)NCc4cccnc4)cc3)oc2C)c1 [Example 15, 4-(4-{[(3,5-Dimethylphenyl)sulfonyl]methyl}-5-methyl-1,3-oxazol-2-yl)-N-(3-pyridinylmethyl)benzamide] | 188 to 190 °C |
| Cc1ccc(S(=O)(=O)Cc2nc(-c3ccc(C(=O)NCc4ccccn4)cc3)oc2C)cc1 [Example 4, 4-(5-Methyl-4-{[(4-methylphenyl)sulfonyl]methyl}-1,3-oxazol-2-yl)-N-(2-pyridinylmethyl)benzamide] | 154 to 155 °C |
| Cc1oc(-c2ccc(C(=O)NCc3cccnc3)cc2)nc1CS(=O)(=O)c1ccc(Br)cc1 [Example 16, 4-(4-{[(4-Bromophenyl)sulfonyl]methyl}-5-methyl-1,3-oxazol-2-yl)-N-(3-pyridinylmethyl)benzamide] | 224 to 227 °C |
| Cc1ccc(S(=O)(=O)Cc2nc(-c3ccc(C(=O)NCc4cncn4C)cc3)oc2C)cc1 [Example 11, N-[(1-Methyl-1H-imidazol-5-yl)methyl]-4-(5-methyl-4-{[(4-methylphenyl)sulfonyl]methyl}-1,3-oxazol-2-yl)benzamide] | 240 to 242 °C |
| Cc1oc(-c2ccc(C(=O)NCc3cccnc3)cc2)nc1CS(=O)(=O)c1ccc(N2CCOCC2)cc1 [Example 24, 4-[5-Methyl-4-({[4-(4-morpholinyl)phenyl]sulfonyl}methyl)-1,3-oxazol-2-yl]-N-(3-pyridinylmethyl)benzamide] | 208 to 210 °C |
| Cc1cccc(S(=O)(=O)Cc2nc(-c3ccc(C(=O)NCc4cccnc4)cc3)oc2C)c1 [Example 17, 4-(5-Methyl-4-{[(3-methylphenyl)sulfonyl]methyl}-1,3-oxazol-2-yl)-N-(3-pyridinylmethyl)benzamide] | 179 to 181 °C |
| Cc1ccc(S(=O)(=O)Cc2csc(-c3ccc(C(=O)NCc4cccnc4)cc3)n2)cc1 [Example 25, 4-(4-{[(4-Methylphenyl)sulfonyl]methyl}-1,3-thiazol-2-yl)-N-(3-pyridinylmethyl)benzamide] | 178 to 181 °C |
| Cc1oc(-c2ccc(C(=O)NCc3cccnc3)cc2)nc1CS(=O)(=O)c1ccccc1 [Example 12, 4-{5-Methyl-4-[(phenylsulfonyl)methyl]-1,3-oxazol-2-yl}-N-(3-pyridinylmethyl)benzamide] | 196 to 198 °C |
| Cc1ccc(S(=O)(=O)Cc2nc(-c3ccc(C(=O)NCc4nccn4C)cc3)oc2C)cc1 [Example 10, N-[(1-Methyl-1H-imidazol-2-yl)methyl]-4-(5-methyl-4-{[(4-methylphenyl)sulfonyl]methyl}-1,3-oxazol-2-yl)benzamide] | 190 to 192 °C |
| Cc1ccc(S(=O)(=O)Cc2nc(-c3ccc(C(=O)NCc4ccncc4)cc3)oc2C)cc1 [Example 6, 4-(5-Methyl-4-{[(4-methylphenyl)sulfonyl]methyl}-1,3-oxazol-2-yl)-N-(4-pyridinylmethyl)benzamide] | 169 to 172 °C |
| Cc1oc(-c2ccc(C(=O)NCc3cccnc3)cc2)nc1CS(=O)(=O)c1ccc(N2CCN(C)CC2)cc1 [Example 23, 4-[5-Methyl-4-({[4-(4-methyl-1-piperazinyl)phenyl]sulfonyl}methyl)-1,3-oxazol-2-yl]-N-(3-pyridinylmethyl)benzamide] | 210 to 215 °C |
| Cc1ccc(S(=O)(=O)Cc2nc(-c3ccc(C(=O)N(C)c4cccnc4)cc3)oc2C)cc1 [Example 3, N-Methyl-4-(5-methyl-4-{[(4-methylphenyl)sulfonyl]methyl}-1,3-oxazol-2-yl)-N-(3-pyridinyl)benzamide] | 195 to 197 °C |
| Cc1ccc(S(=O)(=O)Cc2nc(-c3ccc(C(=O)NCCc4cccnc4)cc3)oc2C)cc1 [Example 8, 4-(5-Methyl-4-{[(4-methylphenyl)sulfonyl]methyl}-1,3-oxazol-2-yl)-N-[2-(3-pyridinyl)ethyl]benzamide] | 207 to 208 °C |
| Cc1oc(-c2ccc(C(=O)NCc3cccnc3)cc2)nc1CS(=O)(=O)c1ccc(C(C)(C)C)cc1 [Example 14, 4-(4-{[(4-tert-Butylphenyl)sulfonyl]methyl}-5-methyl-1,3-oxazol-2-yl)-N-(3-pyridinylmethyl)benzamide] | 177 to 180 °C |
| O=C(Nc1cccnc1)c1ccc(CNS(=O)(=O)c2ccc(Cl)nc2)cc1 [II-2, 4-({[(6-Chloro-3-pyridinyl)sulfonyl]amino}methyl)-N-(3-pyridinyl)benzamide] | 226 to 228 °C |
| COc1cccc(S(=O)(=O)Cc2nc(-c3ccc(C(=O)NCc4cccnc4)cc3)oc2C)c1 [Example 19, 4-(5-Methyl-4-{[(3-methoxyphenyl)sulfonyl]methyl}-1,3-oxazol-2-yl)-N-(3-pyridinylmethyl)benzamide] | 143 to 145 °C |
| Cc1ccc(S(=O)(=O)Cc2nc(-c3ccc(C(=O)Nc4cccnc4)cc3)oc2C)cc1 [Example 1, 4-(5-Methyl-4-{[(4-methylphenyl)sulfonyl]methyl}-1,3-oxazol-2-yl)-N-(3-pyridinyl)benzamide] | 248 to 250 °C |
| Cc1ncc(S(=O)(=O)NCc2ccc(C(=O)Nc3cccnc3)cc2)n1C [II-6, 4-({[(1,2-Dimethyl-1H-imidazol-5-yl)sulfonyl]amino}methyl)-N-(3-pyridinyl)benzamide] | 238 to 240 °C |
| Cc1ccc(S(=O)(=O)Cc2nc(-c3ccc(C(=O)N(C)Cc4cccnc4)cc3)oc2C)cc1 [Example 7, N-Methyl-4-(5-methyl-4-{[(4-methylphenyl)sulfonyl]methyl}-1,3-oxazol-2-yl)-N-(3-pyridinylmethyl)benzamide] | 77 to 80 °C |
| Cc1oc(-c2ccc(C(=O)NCc3cccnc3)cc2)nc1CS(=O)(=O)c1ccc(Cl)cc1 [Example 13, 4-(4-{[(4-Chlorophenyl)sulfonyl]methyl}-5-methyl-1,3-oxazol-2-yl)-N-(3-pyridinylmethyl)benzamide] | 220 to 222 °C |
